Assay results from paper PMC6385087, “New Multitarget Hybrids Bearing Tacrine and Phenylbenzothiazole Motifs as Potential Drug Candidates for Alzheimer’s Disease” (Molecules, 2019).

Key:
AChE from electric eel = target: T1, AChE from electric eel (Electrophorus electricus, UniProt O42275); assay: biochemical; conditions: means of two experiments, read-out: Inhibition of AChE (IC50)
T1 construct: commercially available enzyme AChE 500 U (extracted from electrophorus electricus); purchased type VI-S; host or cells: extracted from electric eel
T1 sequence (O42275 24-633): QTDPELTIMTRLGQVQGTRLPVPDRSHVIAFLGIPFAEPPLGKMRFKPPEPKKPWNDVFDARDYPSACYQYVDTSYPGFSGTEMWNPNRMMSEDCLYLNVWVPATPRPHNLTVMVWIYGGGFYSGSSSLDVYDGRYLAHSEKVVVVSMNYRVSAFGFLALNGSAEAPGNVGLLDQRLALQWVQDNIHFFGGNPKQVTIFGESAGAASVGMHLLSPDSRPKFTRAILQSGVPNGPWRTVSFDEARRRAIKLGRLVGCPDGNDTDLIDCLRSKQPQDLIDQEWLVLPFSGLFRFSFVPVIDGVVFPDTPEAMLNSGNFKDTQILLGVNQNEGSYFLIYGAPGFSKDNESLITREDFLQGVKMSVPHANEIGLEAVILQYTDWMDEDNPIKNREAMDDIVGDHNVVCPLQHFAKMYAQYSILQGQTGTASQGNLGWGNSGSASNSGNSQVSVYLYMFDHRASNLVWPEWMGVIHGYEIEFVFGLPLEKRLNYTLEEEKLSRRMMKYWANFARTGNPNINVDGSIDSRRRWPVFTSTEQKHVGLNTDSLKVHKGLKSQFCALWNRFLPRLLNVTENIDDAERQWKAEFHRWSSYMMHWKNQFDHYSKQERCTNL
Procedure: The analytical grade reagents were purchased from Sigma-Aldrich (St. Louis, MO, USA) and Acros (Thermo Fisher Scientific, Geel, Belgium) and were used without any further purification. The organic solvents were dried and distilled according to standard methods described in literature. […] The Proton and Carbon-13 NMR were recorded either on Bruker AVANCE III-300 (300 MHz and 75.5 MHz) or Bruker AVANCE III-400 (400 MHz and 100.5 MHz) NMR spectrometers (Billerica, MA, USA) at 25 °C using peaks of solvents as internal standard. The chemical shift values of protons or carbons were measured on a δ scale and the coupling constant values (J) were determined in Hertz. In the NMR representation, abbreviations are mentioned as: singlet represented by s, doublet represented by d, triplet represented by t, multiplet represented by m, double doublet represented by dd, and broad singlet represented by brs. The Leica Galen III hot stage apparatus (Leica Microsystems, Wetzlar, Germany) was used for measuring the melting points of compounds. […] The AChE inhibitory activity was measured in a 1 cm path length quartz cell through a Perkin Elmer Lambda 35 spectrophotometer equipped with a temperature programmer PTP1+1 Peltier System (T = 25.0 ± 0.1 °C) (Waltham, MA, USA). Electrospray ionization-mass (ESI-MS) measurements were carried out on a LCQ Fleet mass spectrometer (Thermo Scientific, S. Jose, CA, USA) operated in the ESI positive and negative ion modes.
Modified Ellman’s method was used as described previously for the determination of AChE activity. The AChE stock solution was prepared by dissolving commercially available enzyme AChE 500 U (extracted from electrophorus electricus) in 10 mL of TRIS buffer (50 mM, pH 8). HEPES buffer was used for the dilution of the enzyme to give the final AChE concentration. The assay solution consisted of 374 μL of 4-(2-hydroxyethyl)-1-piperazineethanesulfonic acid (Hepes) buffer (50 mM, pH 8.0), 476 μL of 3 mM bis(3-carboxy-4-nitrophenyl)disulfide (DTNB), 25 μL of AChE (type VI-S, from electric eel) stock solution, a variable volume (10–50 μL) of the compound’s stock solution (1 mg/mL of MeOH), and the necessary amount of methanol to attain the same volume of sample mixture (0.925 mL) in a 1 mL cuvette. Samples were left to react for 15 min and then the reaction was monitored at wavelength of 405 nm for 5 min, after adding 75 μL of 16 mM acetylthiocholine iodide (AChI) solution. Assays were run with a blank containing all the components except AChE, which was replaced by HEPES buffer. The velocities of the reaction were calculated as well as the enzyme activity. A control reaction was carried out using the sample solvent (methanol) in the absence of any tested compound, and it was considered as 100% activity. […] The inhibition curves were obtained by plotting the percentage of enzymatic inhibition versus inhibitor concentration and a calibration curve was obtained from which the linear regression parameters were calculated.

Aβ1–42 self-aggregation = target: T2, Aβ1–42 self-aggregation (Homo sapiens, UniProt P05067); assay: Aβ1–42 self-aggregation inhibition, thioflavin T fluorescence assay; assay type: biochemical; conditions: self-mediated Aβ42 aggregation, ThT fluorescence, CL = 40 μM, means of two experiments; for inhibition at 40 µM: read-out: Inhibition of Aβ-self-aggregation (%)
T2 construct: Commercially available Aβ1-42 peptide was obtained from Aldrich; purchased Aldrich
T2 sequence (P05067 672-713 limits assumed): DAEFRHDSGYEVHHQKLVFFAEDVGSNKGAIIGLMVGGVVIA
Procedure: […]. Since the compounds of this series presented some solubility problems in methanol, the assays were performed with ligands at concentrations of 40 µM, i.e., half of the concentration usually used (80 µM) in these assays. […]. […] So, it appears that introduction of a chloro substituent in TAC and/or a hydroxyl group in the carbon linker are not well suited for the interaction with β-sheet secondary structure of Aβ aggregates. […].
Commercially available Aβ1-42 peptide was obtained from Aldrich and stored at −20 °C. It was treated with 1,1,1,3,3,3-hexafluoropropan-2-ol (HFIP) to avoid self-aggregation and reserved. HFIP pre-treated Aβ1–42 samples were re-dissolved in CH3CN/Na2CO3 (300 µM)/NaOH (250 µM) (48.3:48.3:4.3, v/v/v) solvent mixture in order to have a stable stock solution; this solution (500 µM) was further diluted in phosphate buffer (0.215 M, pH 8.0) to obtain 40 µM solution. The ligand, which was previously dissolved in methanol, was further diluted in phosphate buffer to a final concentration of 40 µM. Aβ1–42 aggregation was determined by measuring the fluorescence emission of Thioflavin T dye, with a Cary Eclipse Varian fluorimeter (Molecular Devices, San José, CA, USA).
After incubation for 24 h at 37 °C, without stirring, the samples were added to a 96-well plate (BD Falcon) with 180 µL of 5 µM ThT in 50 mM glycine-NaOH (pH 8.5) buffer. Blank samples were prepared for each concentration in a similar way, devoid of peptide. As for the control, a sample of the peptide was incubated under identical conditions but without the inhibitor. After 5-min incubation with the dye, the ThT fluorescence was measured at the following wavelengths: 446 nm (excitation) and 486 nm (emission). The percent inhibition of the self-induced aggregation due to the presence of the test compound was calculated by Equation (2), in which IFi and IF0 corresponded to the fluorescence intensities, in the presence and the absence of the test compound, minus the fluorescence intensities due to the respective blanks. I% = 100 − (IFi/IF0 × 100)(2)
The reported values were obtained as the mean ± S.E.M. of two different experiments.

Compound | IC50 (AChE from electric eel) [nM] | inhibition at 40 µM (Aβ1–42 self-aggregation) [%] | Inhibition of Aβ-self-aggregation (%) (Aβ1–42 self-aggregation; 40 µM)
COc1cc(-c2nc3ccccc3s2)ccc1OCC(=O)NCCCNc1c2c(nc3ccccc13)CCCC2 [compound 16, 2-(4-(Benzo[d]thiazol-2-yl)-2-methoxyphenoxy)-N-(3-((1,2,3,4-tetrahydroacridin-9-yl)amino)propyl)acetamide] | 150 | 33.7 | –
COc1cc(-c2nc3ccccc3s2)ccc1OCC(=O)NCC(O)CNc1c2c(nc3cc(Cl)ccc13)CCCC2 (stereo not shown) [compound 19, 2-(4-(Benzo[d]thiazol-2-yl)-2-methoxyphenoxy)-N-(3-((6-chloro-1,2,3,4-tetrahydroacridin-9-yl)amino)-2-hydroxypropyl)acetamide] | 140 | ~31 | 31.3
COc1cc(-c2nc3ccccc3s2)ccc1OCC(=O)NCCNc1c2c(nc3cc(Cl)ccc13)CCCC2 [compound 15, 2-(4-(Benzo[d]thiazol-2-yl)-2-methoxyphenoxy)-N-(2-((6-chloro-1,2,3,4 tetrahydroacridin-9-yl)amino)ethyl)acetamide] | 60 | 27 | –
